Source: ChEMBL document CHEMBL1146997, “Synthesis of phospholipase A2 inhibitory biflavonoids” (Bioorg Med Chem Lett, 2006)

target: T1, Phospholipase A2, membrane associated (Homo sapiens, UniProt P14555); assay: Inhibition of sPLA2-2A in HEK293 cell; format: cell-based
T1 sequence (P14555 whole entry): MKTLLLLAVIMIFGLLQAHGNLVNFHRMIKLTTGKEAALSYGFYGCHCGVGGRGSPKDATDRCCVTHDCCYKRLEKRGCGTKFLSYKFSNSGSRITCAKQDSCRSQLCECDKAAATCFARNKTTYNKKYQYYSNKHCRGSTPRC

Compound	IC50
O=c1cc(-c2ccc(-c3ccc4oc(-c5ccccc5)cc(=O)c4c3)cc2)oc2ccccc12	63.9 µM
O=c1cc(-c2cccc(-c3ccc4oc(-c5ccccc5)cc(=O)c4c3)c2)oc2ccccc12	19.9 µM
O=c1cc(-c2ccccc2)oc2ccc(-c3ccc4oc(-c5ccccc5)cc(=O)c4c3)cc12	69.3 µM
O=c1cc(-c2ccc(O)c(-c3c(O)cc(O)c4c(=O)cc(-c5ccc(O)cc5)oc34)c2)oc2cc(O)cc(O)c12 [AMENTOFLAVONE]	23.8 µM
O=c1cc(-c2ccc(Oc3cc(-c4cc(=O)c5c(O)cc(O)cc5o4)ccc3O)cc2)oc2cc(O)cc(O)c12 [OCHNAFLAVONE]	3.5 µM

Second part, the molecule after the results:

IC50	Compound
23.2 µM	O=c1cc(-c2ccc(-c3c(-c4ccccc4)oc4ccccc4c3=O)cc2)oc2ccccc12
3 µM	O=c1cc(-c2ccc(-c3ccc(-c4cc(=O)c5ccccc5o4)cc3)cc2)oc2ccccc12
15.5 µM	O=c1cc(-c2ccc(-c3cccc(-c4cc(=O)c5ccccc5o4)c3)cc2)oc2ccccc12
